A short description of this data set: in vitro. To be noted: human, hela cells, % viability.

As for `Cc1nn(CC(=O)NC(C)C)c(=O)c2cc3ccsc3n12` [CBK284027], the viability at 28.5 h, 10 µM was 83.9%.

Consider `CCc1nn(CC(=O)N2CCCC2)c(=O)c2cc3sccc3n12` [CBK284028], for which the viability at 28.5 h, 10 µM was found to be 85.8%.

In the case of `CCCNC(=O)Cn1nc(CC)n2c(cc3sccc32)c1=O` [CBK284030], the viability at 28.5 h, 10 µM was 89.3%.

In the case of `CC1CC(C)CN(C(=O)CN2C3CCC2CC(O)(c2ccco2)C3)C1` (centres unmarked) [CBK284032], the viability at 28.5 h, 10 µM stood at 92.5%.

With `O=C(Cc1ccc(F)cc1)N1C2CCC1CC(O)(c1ccco1)C2` (centres unmarked) [CBK284033], the viability at 28.5 h, 10 µM turned out to be 86.4%.

`CC1CCC(NC(=O)CN2C3CCC2CC(O)(c2ccco2)C3)CC1` (centres unmarked) [CBK284036]: the viability at 28.5 h, 10 µM stood at 91%.

Consider `O=C(C1CC1)N1CCC(Cn2nc(-c3cccs3)ccc2=O)CC1` [CBK284039], for which the viability at 28.5 h, 10 µM turned out to be 101%.

For `O=C(CN1C2CCC1CC(O)(c1ccco1)C2)N1CCCC1` (centres unmarked) [CBK284042], the viability at 28.5 h, 10 µM is 88.7%.

For `CC1CCCC(C)N1C(=O)CN1C2CCC1CC(O)(c1ccco1)C2` (centres unmarked) [CBK284043], the viability at 28.5 h, 10 µM came out at 85.4%.

As to `CCN(CC)C(=O)Cn1nc(C)n2c(cc3sccc32)c1=O` [CBK284044], the viability at 28.5 h, 10 µM turned out to be 88.7%.

With `Cc1nn(CC(=O)NC2CC2)c(=O)c2cc3sccc3n12` [CBK284047], the viability at 28.5 h, 10 µM worked out at 94.9%.

Regarding `Cc1nn(CC(=O)NC(C)C)c(=O)c2cc3sccc3n12` [CBK284048], the viability at 28.5 h, 10 µM is 104%.

Consider `Cn1ccnc1C1(O)CC2CCC(C1)N2C(=O)C1CCCC1` (centres unmarked) [CBK284052], for which the viability at 28.5 h, 10 µM is 86.4%.

With `CCc1nn(CC(=O)N(CC)CC)c(=O)c2cc3sccc3n12` [CBK284054], the viability at 28.5 h, 10 µM was 77.8%.

For the compound `CCc1nn(CC(=O)NC(C)(C)C)c(=O)c2cc3sccc3n12` [CBK284056], the viability at 28.5 h, 10 µM was found to be 73.8%.

For `Cc1nn(CC(=O)OC2CCCCC2)c(=O)c2cc3ccsc3n12` [CBK284058], the viability at 28.5 h, 10 µM is 82.5%.

Regarding `Cc1nn(Cc2ccc(F)cc2)c(=O)c2cc3sccc3n12` [CBK284059], the viability at 28.5 h, 10 µM is 72.7%.

Consider `Cc1nn(CC(=O)N2CCCCCC2)c(=O)c2cc3ccsc3n12` [CBK284060], for which the viability at 28.5 h, 10 µM amounted to 84.8%.

Consider `CCCNC(=O)Cn1nc(C)n2c(cc3ccsc32)c1=O` [CBK284061], for which the viability at 28.5 h, 10 µM was determined as 78.2%.

`Cc1cc2c(cc3c(=O)n(CC(=O)N4CCCC4)nc(C)n32)s1` [CBK284065]: the viability at 28.5 h, 10 µM amounted to 92.4%.

As to `CCCNC(=O)Cn1nc(C)n2c(cc3sc(C)cc32)c1=O` [CBK284068], the viability at 28.5 h, 10 µM came out at 86.1%.

`Cc1cc2c(cc3c(=O)n(CC(=O)NC(C)(C)C)nc(C)n32)s1` [CBK284070]: the viability at 28.5 h, 10 µM was found to be 84.1%.

Regarding `Cc1cc2c(cc3c(=O)n(CC(=O)NC4CCCC4)nc(C)n32)s1` [CBK284072], the viability at 28.5 h, 10 µM worked out at 96.9%.

In the case of `CCc1nn(CC(=O)NC2CCCC2)c(=O)c2cc3sccc3n12` [CBK284077], the viability at 28.5 h, 10 µM is 84%.

With `CCOC(=O)C(C)n1nc(C)n2c(cc3ccsc32)c1=O` (centres unmarked) [CBK284079], the viability at 28.5 h, 10 µM was 96.2%.

In the case of `Cc1nn(CC(=O)NC2CCCCC2)c(=O)c2cc3ccsc3n12` [CBK284080], the viability at 28.5 h, 10 µM is 94.9%.

Take `Cc1nn(CC(=O)N2CCC(C)CC2)c(=O)c2cc3ccsc3n12` [CBK284081]: the viability at 28.5 h, 10 µM is 91.3%.

Consider `Cn1ccnc1C1(O)CC2CCC(C1)N2C(=O)c1ccccc1F` (centres unmarked) [CBK284085], for which the viability at 28.5 h, 10 µM was determined as 87.4%.

Consider `Cn1ccnc1C1(O)CC2CCC(C1)N2C(=O)c1cccc(F)c1` (centres unmarked) [CBK284089], for which the viability at 28.5 h, 10 µM is 93.9%.

For the compound `Cn1ccnc1C1(O)CC2CCC(C1)N2C(=O)c1ccccc1Cl` (centres unmarked) [CBK284090], the viability at 28.5 h, 10 µM turned out to be 99%.

As to `Cn1ccnc1C1(O)CC2CCC(C1)N2C(=O)c1cccc(Cl)c1` (centres unmarked) [CBK284091], the viability at 28.5 h, 10 µM stood at 86%.

In the case of `Cn1ccnc1C1(O)CC2CCC(C1)N2C(=O)c1c(F)cccc1F` (centres unmarked) [CBK284092], the viability at 28.5 h, 10 µM came to 88.7%.

Turning to `O=C(CN1C2CCC1CC(O)(c1ccco1)C2)N1CCCCC1` (centres unmarked) [CBK284093], the viability at 28.5 h, 10 µM came to 90.3%.

As for `CCN(CC)C(=O)CN1C2CCC1CC(O)(c1ccco1)C2` (centres unmarked) [CBK284094], the viability at 28.5 h, 10 µM came to 106%.

In the case of `Cc1cc2c(cc3c(=O)n(CC(=O)NCC4CC4)nc(C)n32)s1` [CBK284097], the viability at 28.5 h, 10 µM was found to be 96.6%.

Turning to `CCc1nn(CCN2CCCC2)c(=O)c2cc3sc(C)cc3n12` [CBK284098], the viability at 28.5 h, 10 µM came to 88.5%.

As for `CCc1nn(CC(=O)NC2CC2)c(=O)c2cc3sc(C)cc3n12` [CBK284099], the viability at 28.5 h, 10 µM came out at 91.9%.

`CCc1nn(CC(=O)NCC2CC2)c(=O)c2cc3sc(C)cc3n12` [CBK284100]: the viability at 28.5 h, 10 µM turned out to be 85.7%.

In the case of `CCN(CC)C(=O)Cn1nc(C)n2c(cc3ccsc32)c1=O` [CBK284104], the viability at 28.5 h, 10 µM is 97.3%.

With `O=C(CN1C2CCC1CC(O)(c1ccco1)C2)NCc1ccccc1` (centres unmarked) [CBK284105], the viability at 28.5 h, 10 µM came to 94.5%.

`O=C(CN1C2CCC1CC(O)(c1ccco1)C2)Nc1ccccc1F` (centres unmarked) [CBK284109]: the viability at 28.5 h, 10 µM worked out at 96.7%.

For `CC(C(=O)N1C2CCC1CC(O)(c1ccco1)C2)c1ccccc1` (centres unmarked) [CBK284112], the viability at 28.5 h, 10 µM was 97.8%.

Regarding `CCc1nn(Cc2ccccn2)c(=O)c2cc3sc(C)cc3n12` [CBK284113], the viability at 28.5 h, 10 µM came out at 77%.

Turning to `CC(C)C(=O)N1CCC(Cn2nc(-c3ccccc3)ccc2=O)CC1` [CBK284114], the viability at 28.5 h, 10 µM turned out to be 83.1%.

For the compound `CCc1nn(CC(=O)N2CCCC2)c(=O)c2cc3ccsc3n12` [CBK284120], the viability at 28.5 h, 10 µM turned out to be 84.2%.

As for `CCc1nn(CC(=O)N2CCCC2)c(=O)c2cc3sc(C)cc3n12` [CBK284122], the viability at 28.5 h, 10 µM was 82.9%.

As to `CCOC(=O)C(C)n1nc(CC)n2c(cc3sc(C)cc32)c1=O` (centres unmarked) [CBK284123], the viability at 28.5 h, 10 µM was 86%.

For the compound `CCc1nn(CC(=O)NC(C)(C)C)c(=O)c2cc3sc(C)cc3n12` [CBK284124], the viability at 28.5 h, 10 µM is 83.9%.

For `Cc1cc2c(cc3c(=O)n(CCN4CCCC4)nc(C)n32)s1` [CBK284126], the viability at 28.5 h, 10 µM worked out at 95.5%.

As to `CCCNC(=O)Cn1nc(CC)n2c(cc3ccsc32)c1=O` [CBK284130], the viability at 28.5 h, 10 µM was 91.5%.

On to `CCc1nn(CC(=O)N(CC)CC)c(=O)c2cc3ccsc3n12` [CBK284132], for which the viability at 28.5 h, 10 µM amounted to 88.2%.

Regarding `CCOC(=O)Cn1nc(CC)n2c(cc3ccsc32)c1=O` [CBK284133], the viability at 28.5 h, 10 µM came to 83.9%.

For the compound `O=C(c1cscn1)N1C2CCC1CC(O)(c1ccco1)C2` (centres unmarked) [CBK284135], the viability at 28.5 h, 10 µM is 105%.

As to `CCc1nn(CC(=O)NC2CCC2)c(=O)c2cc3ccsc3n12` [CBK284136], the viability at 28.5 h, 10 µM came to 88.9%.

Turning to `Cc1nn2c(C3CCCNC3)ccnc2c1-c1ccc(F)cc1` (centres unmarked) [CBK284139], the viability at 28.5 h, 10 µM was found to be 78.8%.

Turning to `CCc1nn(Cc2ccncc2)c(=O)c2cc3sc(C)cc3n12` [CBK284140], the viability at 28.5 h, 10 µM turned out to be 85.7%.

For `Cc1nn(CC(=O)N2CCCCC2C)c(=O)c2cc3sccc3n12` (centres unmarked) [CBK284141], the viability at 28.5 h, 10 µM was determined as 70%.

With `CCc1nn(CC(=O)NC2CCC2)c(=O)c2cc3sc(C)cc3n12` [CBK284142], the viability at 28.5 h, 10 µM was 92.4%.

On to `CCCc1nn(CC(=O)OC)c(=O)c2cc3ccsc3n12` [CBK284144], for which the viability at 28.5 h, 10 µM came to 98.7%.

Usually viability stands for a read-out of living cells in per cent, often relative to untreated cells.
